Test results reported in ChEMBL document CHEMBL1201862, “PubChem BioAssay data set” (2004).
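Dose response: 5 concentrations. Exposure: 48 h. Format: 96-well plates. Endpoint: linear interpolation; highest concentration if not reached. Here, GI50 denotes the concentration required for 50% inhibition of growth.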 Active and inactive are the calls of the source. No stated cut-off is given here; in the data, active = GI50 up to about 1.1 µM and inactive = higher. Where a SMILES comes first, the peptide text is derived from it. The star is where a group is joined. Boc = CC(C)(C)OC(=O)*

How the values were obtained:
Assay in all cases: inhibition of tumour cell growth, NCI panel, 48 h
ACHN = test system: ACHN
CAKI-1 = test system: CAKI-1
COLO 205 = test system: COLO 205
HOP-62 = test system: HOP-62
M14 = test system: M14
MDA-MB-435 = test system: MDA-MB-435
NCI-H23 = test system: NCI-H23
NCI-H522 = test system: NCI-H522
NCI/ADR-RES = test system: NCI/ADR-RES
RPMI-8226 = test system: RPMI-8226
SF-268 = test system: SF-268
SF-295 = test system: SF-295
SF-539 = test system: SF-539
SK-MEL-5 = test system: SK-MEL-5
SW-620 = test system: SW-620
HL-60 = test system: HL-60
LOX IMVI = test system: LOX IMVI
NCI-H226 = test system: NCI-H226
UACC-257 = test system: UACC-257
Hs-578T = test system: Hs-578T

Measured: GI50

COC(=O)C1C2C=CC(C2)N1S(=O)(=O)c1ccccc1 (centres undefined)
inactive: ACHN > 100 µM | CAKI-1 > 100 µM | COLO 205 > 100 µM | HOP-62 > 100 µM | M14 > 100 µM | MDA-MB-435 > 100 µM | NCI-H23 > 100 µM | NCI-H522 > 100 µM | NCI/ADR-RES > 100 µM | RPMI-8226 > 100 µM | SF-268 > 100 µM | SF-295 > 100 µM | SF-539 > 100 µM | SK-MEL-5 > 100 µM | SW-620 > 100 µM

COC(=O)C1CC2C=CC=CC(=O)C2(C)C1 (centres undefined)
inactive: ACHN 59.6 µM | CAKI-1 > 100 µM | COLO 205 76.9 µM | HL-60 25.8 µM | HOP-62 > 100 µM | LOX IMVI 53.3 µM | M14 30.5 µM | NCI-H226 56.4 µM | NCI-H23 44.3 µM | NCI-H522 > 10 µM | RPMI-8226 22.6 µM | SF-268 37.3 µM | SF-295 53.6 µM | SF-539 > 100 µM | SK-MEL-5 51.1 µM | SW-620 27.2 µM | UACC-257 38.7 µM

OCC1OC(NO)C(O)C(O)C1O (centres undefined)
inactive: ACHN > 100 µM | CAKI-1 > 100 µM | COLO 205 > 100 µM | HL-60 > 100 µM | HOP-62 > 100 µM | LOX IMVI > 100 µM | M14 > 100 µM | NCI-H226 > 100 µM | NCI-H23 > 100 µM | NCI-H522 > 100 µM | RPMI-8226 > 100 µM | SF-268 > 100 µM | SF-295 > 100 µM | SF-539 > 100 µM | SK-MEL-5 > 100 µM | SW-620 > 100 µM | UACC-257 > 100 µM

Nc1cc(N2CCOCC2)nc(=O)n1-c1ccc(Cl)cc1
inactive: ACHN > 100 µM | CAKI-1 > 100 µM | COLO 205 > 100 µM | HL-60 8.38 µM | HOP-62 > 100 µM | LOX IMVI > 100 µM | M14 > 100 µM | MDA-MB-435 > 100 µM | NCI-H226 > 100 µM | NCI-H23 > 100 µM | NCI/ADR-RES > 100 µM | RPMI-8226 > 100 µM | SF-295 > 100 µM | SF-539 > 100 µM | SK-MEL-5 > 100 µM | SW-620 > 100 µM | UACC-257 > 100 µM

CC(=O)Nc1ccc2cc(C#N)c(=O)[nH]c2n1
inactive: ACHN > 100 µM | CAKI-1 > 100 µM | COLO 205 > 100 µM | HOP-62 > 100 µM | LOX IMVI > 100 µM | M14 > 100 µM | MDA-MB-435 > 100 µM | NCI-H226 > 100 µM | NCI-H23 > 100 µM | NCI-H522 > 100 µM | NCI/ADR-RES > 100 µM | RPMI-8226 > 100 µM | SF-268 > 100 µM | SF-295 > 100 µM | SF-539 > 100 µM | SK-MEL-5 > 100 µM | SW-620 > 100 µM | UACC-257 > 100 µM

NC1CC(=O)c2cc(Br)sc21 (centres undefined)
inactive: ACHN > 100 µM | CAKI-1 > 100 µM | COLO 205 > 100 µM | HL-60 > 100 µM | HOP-62 > 100 µM | M14 > 100 µM | MDA-MB-435 > 100 µM | NCI/ADR-RES > 100 µM | RPMI-8226 > 100 µM | SF-268 > 100 µM | SF-539 > 100 µM | SK-MEL-5 > 100 µM | SW-620 > 100 µM | UACC-257 > 100 µM

CCCCCCCCCCCCCP(=O)(OC)OC
inactive: ACHN 18.5 µM | CAKI-1 18 µM | COLO 205 20 µM | HL-60 15.6 µM | HOP-62 14.9 µM | LOX IMVI 19.3 µM | M14 19.9 µM | NCI-H226 19.2 µM | NCI-H23 18.7 µM | NCI-H522 13.6 µM | RPMI-8226 24.3 µM | SF-295 21.5 µM | SF-539 17 µM | SK-MEL-5 18.6 µM | SW-620 17.7 µM | UACC-257 19.4 µM

Nc1ccc(C(=O)N/C(=C\c2cccc([N+](=O)[O-])c2)c2nc3ccccc3[nH]2)cc1
inactive: ACHN 40.6 µM | CAKI-1 47 µM | COLO 205 > 100 µM | HL-60 > 81.7 µM | HOP-62 21.8 µM | LOX IMVI > 100 µM | M14 > 100 µM | NCI-H226 > 100 µM | NCI-H23 > 75.9 µM | NCI-H522 36.6 µM | RPMI-8226 > 100 µM | SF-268 21.8 µM | SF-295 28.4 µM | SF-539 22.8 µM | SK-MEL-5 76.4 µM | SW-620 > 100 µM

Cc1ccc(NC(=O)CC2SC(Nc3ccc(Cl)cc3)=NC2=O)cc1C (centres undefined)
inactive: ACHN 16.1 µM | CAKI-1 21.2 µM | COLO 205 13.2 µM | HL-60 3.12 µM | HOP-62 > 100 µM | LOX IMVI 19.4 µM | M14 16.9 µM | NCI-H226 > 47.2 µM | NCI-H23 19 µM | NCI-H522 7.85 µM | RPMI-8226 6.47 µM | SF-268 18.3 µM | SF-295 > 44 µM | SF-539 20.8 µM | SK-MEL-5 20.3 µM | SW-620 7.08 µM | UACC-257 15.9 µM

CC1(C)O[C@@H](CC/C=C/CO)[C@H](CC/C=C/CO)O1
inactive: ACHN > 100 µM | CAKI-1 > 100 µM | COLO 205 > 100 µM | HL-60 63.8 µM | HOP-62 > 100 µM | LOX IMVI > 100 µM | M14 > 100 µM | NCI-H226 > 100 µM | NCI-H23 > 100 µM | NCI-H522 > 100 µM | RPMI-8226 > 100 µM | SF-268 > 100 µM | SF-295 > 100 µM | SF-539 > 100 µM | SK-MEL-5 > 100 µM | SW-620 > 100 µM | UACC-257 > 100 µM

O=C(O)C(C(=O)C(=O)C(C(=O)O)c1ccc(Cl)cc1)c1ccc(Cl)cc1 (centres undefined)
inactive: ACHN 3.64 µM | CAKI-1 4.13 µM | COLO 205 6.44 µM | HL-60 2.18 µM | HOP-62 5.22 µM | LOX IMVI 2.56 µM | M14 4.45 µM | NCI-H226 4.58 µM | NCI-H23 2 µM | NCI-H522 1.88 µM | RPMI-8226 2.13 µM | SF-268 2.9 µM | SF-295 8.65 µM | SF-539 2.15 µM | SW-620 3.98 µM | UACC-257 2.75 µM

CCOC(=O)c1cc(/C=C/C(C)=C/C(=O)OC)n(C)c1C
inactive: ACHN 45.2 µM | CAKI-1 > 100 µM | COLO 205 > 100 µM | HL-60 23.9 µM | HOP-62 > 100 µM | LOX IMVI > 100 µM | M14 > 100 µM | NCI-H226 > 100 µM | NCI-H23 > 100 µM | NCI-H522 76 µM | RPMI-8226 36.2 µM | SF-268 52.4 µM | SF-295 > 100 µM | SF-539 77.8 µM | SK-MEL-5 52.1 µM | SW-620 > 100 µM | UACC-257 78.2 µM

CSc1ncnc2c1cnn2CCCCO
inactive: ACHN > 100 µM | CAKI-1 > 100 µM | COLO 205 > 100 µM | HL-60 > 100 µM | HOP-62 > 100 µM | Hs-578T > 100 µM | LOX IMVI > 100 µM | M14 > 100 µM | MDA-MB-435 > 100 µM | NCI-H226 > 100 µM | NCI-H23 > 100 µM | NCI-H522 > 100 µM | RPMI-8226 > 100 µM | SF-268 > 100 µM | SF-295 > 100 µM | SF-539 > 100 µM | SK-MEL-5 > 100 µM | SW-620 > 100 µM | UACC-257 > 100 µM

CC(=O)C=C1Nc2ccccc2N1
inactive: ACHN > 100 µM | CAKI-1 > 100 µM | COLO 205 > 100 µM | HL-60 > 100 µM | LOX IMVI > 100 µM | M14 > 100 µM | NCI-H226 > 100 µM | NCI-H23 > 100 µM | NCI-H522 > 100 µM | RPMI-8226 > 100 µM | SF-268 > 100 µM | SF-295 > 100 µM | SF-539 > 100 µM | SK-MEL-5 > 100 µM | SW-620 > 100 µM | UACC-257 > 100 µM

Clc1ccc(C(c2ccc(Cl)cc2)c2ccccn2)cc1
inactive: ACHN 18.1 µM | CAKI-1 23.2 µM | HL-60 20.6 µM | LOX IMVI 16.7 µM | M14 21.1 µM | NCI-H226 17.1 µM | NCI-H23 31.6 µM | NCI-H522 21.4 µM | RPMI-8226 28.8 µM | SF-268 23.5 µM | SF-295 19.1 µM | SF-539 18.7 µM | SK-MEL-5 17.1 µM | SW-620 20.1 µM | UACC-257 18.8 µM

CNC(=O)CNC(=O)C(NC(=O)CNC(=O)C1CCCN1C(=O)C(C)NC(=O)C(NC(=O)OC(C)(C)C)C(C)C)C(C)C (centres undefined) (Boc-VAPGVG-NHMe; configuration not given here)
inactive: ACHN > 100 µM | CAKI-1 > 100 µM | COLO 205 > 100 µM | HL-60 > 100 µM | HOP-62 > 100 µM | LOX IMVI > 100 µM | M14 > 100 µM | MDA-MB-435 > 100 µM | NCI-H23 > 100 µM | NCI-H522 > 100 µM | NCI/ADR-RES > 100 µM | RPMI-8226 > 100 µM | SF-268 > 100 µM | SF-295 > 100 µM | SF-539 > 100 µM | SW-620 > 100 µM | UACC-257 > 100 µM
